This is an account of results in patent US9617256B2 (priority 2007, dated 2017).

In one assay the test system is AECO001 (ATCC25922). Briefly: MIC broth microdilution, AECO001. In kind it is cell-based, E. coli. The settings on record: for MIC: Escherichia coli. In short, it runs like this: (§1)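 Strains were grown overnight at 35° C. on Mueller-Hinton agar, suspended to 0.5 McFarland and diluted to a final 3×10^5–7×10^5 CFU/mL. They were then exposed to 2-fold serial drug dilutions in cation-adjusted Mueller-Hinton broth and incubated 18-24 hours at 35° C.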

For a further assay, the system named is AECO001 HSA AGP. As to the kind of experiment: MIC broth microdilution, AECO001 HSA AGP. In kind it is cell-based, E. coli. As to conditions: for MIC: Escherichia coli. How it is done:
Bacterial isolates were cultivated from −70° C. frozen stocks by overnight passages at 35° C. in ambient air on Mueller-Hinton agar (Beckton Dickinson, Franklin Lakes, N.J.). Clinical isolates tested were obtained from various geographically diverse hospitals in the US and abroad (Focus Diagnostics, Herndon, Va. and JMI, North Liberty, Iowa). Quality control strains were from the American Type Culture Collection (ATCC; Rockville, Md.). Additional primary panel strains were generated using standard molecular biology techniques.
Minimum Inhibitory Concentrations (MICs) were determined by the broth microdilution method in accordance with the Clinical and Laboratory Standards Institute (CLSI) guidelines. In brief, organism suspensions were adjusted to a 0.5 McFarland standard to yield a final inoculum between 3×10^5 and 7×10^5 colony-forming units (CFU)/mL. Drug dilutions and inocula were made in sterile, cation adjusted Mueller-Hinton Broth (Beckton Dickinson). An inoculum volume of 100 μL was added to wells containing 100 μL of broth with 2-fold serial dilutions of drug. All inoculated microdilution trays were incubated in ambient air at 35° C. for 18-24 hours. […] Performance of the assay was monitored by the use of laboratory quality-control strains and levofloxacin, a compound with a defined MIC spectrum, in accordance with CLSI guidelines.
*AECO001 is ATCC25922, AECO063 is ATCC25922 bearing an acrAB mutation, APAE001 is ATCC27853, APAE006 is a strain of P. aeruginosa in which all efflux pumps are inactivated, APAE006+PMBN indicates MICs with the indicated strain in the presence of 8 micrograms per milliliter of polymyxin B nonapeptide, AABA1060 is a clinical isolate of Acinetobacter baumannii, ASAU001 is a laboratory strain of S. aureus (ATCC29213).

In assay [1] the test system is AECO063 (ATCC25922 bearing an acrAB mutation). As to the kind of experiment: microbe, parasite or virus in culture. The class given is cell-based, E. coli. The settings on record: for MIC: Escherichia coli, ATCC25922, read-out: MIC AECO063. In short, it runs like this:
as §1

For assay [2], the system named is AABA1060 (clinical isolate of Acinetobacter baumannii). Briefly: MIC broth microdilution, AABA1060. In kind it is cell-based. The settings on record: for MIC: Acinetobacter baumannii, read-out: MIC AABA1060. In short, it runs like this: as §1
Assay [3] relates to ASAU001 (laboratory strain of S. aureus, ATCC29213). As to the kind of experiment: MIC broth microdilution, ASAU001. The settings on record: for MIC: Staphylococcus aureus, ATCC29213, read-out: MIC ASAU001. The class given is cell-based. In short, it runs like this: as §1
In assay [4] the test system is APAE006 (strain of P. aeruginosa in which all efflux pumps are inactivated). As to the kind of experiment: microbe, parasite or virus in culture. The class given is cell-based. As to conditions: for MIC: Pseudomonas aeruginosa. In short, it runs like this: (§2)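 (ambient air) in cation-adjusted MHB; inoculum from 0.5 McFarland suspensions, final 3×10^5–7×10^5 CFU/mL; 2-fold serial drug dilutions per CLSI. APAE006: P. aeruginosa with all efflux pumps inactivated.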

The next assay concerns APAE001 (ATCC27853). Briefly: MIC broth microdilution, APAE001. In kind it is cell-based, P. aeruginosa. The settings on record: for MIC: Pseudomonas aeruginosa. In short, it runs like this:
as §1

In assay [5] the test system is APAE006 in the presence of 8 micrograms per milliliter of polymyxin B nonapeptide. In kind it is cell-based, P. aeruginosa. The settings on record: APAE006 with 8 micrograms per milliliter polymyxin B nonapeptide. An outline of the steps: as §2
The mark [6] stands for this setting: ATCC25922, read-out: MIC AECO001.
Setting [7] is: read-out: MIC APAE006, P. aeruginosa, all efflux pumps inactivated.
[8] abbreviates: ATCC27853, read-out: MIC APAE001, APAE001 is ATCC27853.
[9] abbreviates: ATCC25922, read-out: MIC AECO001 HSA AGP.
[10] abbreviates: read-out: MIC APAE006, APAE006, all efflux pumps inactivated.
[11] abbreviates: ATCC27853, read-out: MIC APAE001, APAE001 (ATCC27853).

Each structure is given as a SMILES string. Values after ≈ are worked out from the molar mass of the structure shown. Where two headings read alike, the source gives them in different places. Some results are limits rather than exact numbers.

Turning to `CC(C)(O)[C@H](NC(=O)c1ccc(C#CC#Cc2cccnc2)cc1)C(=O)NO` [Example 88-5], the MIC in the assay on AECO001 (ATCC25922) (setting [6]) was less than 2 µg/mL; against AECO001 HSA AGP it was less than 2 µg/mL; in assay [1] it was less than 2 µg/mL; in assay [2], less than 2 µg/mL; in assay [3], 16 to 64 µg/mL (≈ 42.4 to 170 µM); in assay [4] (setting [7]) it was less than 2 µg/mL. For the same molecule, in the assay on APAE001 (ATCC27853) (setting [8]), the MIC fell in the range of 2 to 16 µg/mL (≈ 5.3 to 42.4 µM).

For `C[C@@H](O)[C@H](NC(=O)c1ccc(Sc2ccc(CN3CCOCC3)cc2)cc1)C(=O)NO` [Example 47-5, N-((1S,2R)-2-hydroxy-1-hydroxycarbamoyl-propyl)-4-(4-morpholin-4-ylmethyl-phenylsulfanyl)-benzamide], the MIC is more than 64 µg/mL with AECO001 (ATCC25922) (setting [6]); more than 64 µg/mL in the assay on AECO001 HSA AGP; more than 64 µg/mL in assay [1]; more than 64 µg/mL in assay [2]; more than 64 µg/mL in assay [3]; 16 to 64 µg/mL (≈ 35.9 to 144 µM) in assay [4] (setting [7]). In addition, in the assay on APAE001 (ATCC27853) (setting [8]), the MIC is more than 64 µg/mL.

Turning to `C[C@@H](N)[C@H](NC(=O)c1ccc(CCc2ccc(CN3CCOCC3)cc2)cc1)C(=O)NO` [Example 137-1], the “MIC AECO001” value with AECO001 (ATCC25922) (AECO001 is ATCC25922) is “A (MIC's of 2.0 μg/mL or less = A)”. Besides, the “MIC AECO001 HSA AGP” value in the assay on AECO001 HSA AGP is “B (MIC's of greater than 2.0 μg/mL to 16.0 μg/mL = B)”. In assay [1] (ATCC25922 bearing an acrAB mutation), the “MIC AECO063” value is listed as “A (MIC's of 2.0 μg/mL or less = A)”. The “MIC AABA1060” value in assay [2] (clinical isolate of Acinetobacter baumannii) was “D (MIC's of greater than 64.0 μg/mL = D)”. Also, the “MIC ASAU001” value in assay [3] (S. aureus ATCC29213) is “D (MIC's of greater than 64.0 μg/mL = D)”. Besides, in assay [4] (P. aeruginosa, all efflux pumps inactivated), the “MIC APAE006” value is recorded as “A (MIC's of 2.0 μg/mL or less = A)”. In addition, the “MIC APAE001” value against APAE001 (ATCC27853) (APAE001 is ATCC27853) is on record as “B (MIC's of greater than 2.0 μg/mL to 16.0 μg/mL = B)”.

Consider `CC(O)[C@H](NS(=O)(=O)c1ccc(C#Cc2ccc(CN3CCOCC3)cc2)cc1)C(=O)NO` (stereo partly drawn) [Example 62-7], for which the MIC in the assay on AECO001 (ATCC25922) (setting [6]) is 16 to 64 µg/mL (≈ 33.8 to 135 µM); in the assay on AECO001 HSA AGP it was 16 to 64 µg/mL (≈ 33.8 to 135 µM); in assay [1], 2 to 16 µg/mL (≈ 4.22 to 33.8 µM); in assay [2], 16 to 64 µg/mL (≈ 33.8 to 135 µM); in assay [3], more than 64 µg/mL; in assay [4] (setting [7]) it was 2 to 16 µg/mL (≈ 4.22 to 33.8 µM). In addition, the MIC with APAE001 (ATCC27853) (setting [8]) was more than 64 µg/mL.

As for `C[C@@H](N)[C@H](NC(=O)c1ccc(C#Cc2ccc(COCC(F)(F)F)cc2)cc1)C(=O)NO` [Example 124-1, N-((1S,2R)-2-Amino-1-hydroxycarbamoyl-propyl)-4-[4-(2,2,2-trifluoro-ethoxymethyl)-phenylethynyl]-benzamide], the MIC in the assay on AECO001 (ATCC25922) (setting [6]) was less than 2 µg/mL; in the assay on AECO001 (ATCC25922) (setting [9]), 2 to 16 µg/mL (≈ 4.45 to 35.6 µM); in assay [1], less than 2 µg/mL; in assay [2], 16 to 64 µg/mL (≈ 35.6 to 142 µM); in assay [3] it was 16 to 64 µg/mL (≈ 35.6 to 142 µM); in assay [4] (setting [10]), less than 2 µg/mL. In addition, the MIC in the assay on APAE001 (ATCC27853) (setting [11]) was 2 to 16 µg/mL (≈ 4.45 to 35.6 µM). Also, the “MIC APAE006 + PMBN” value in assay [5] is recorded as “A (MIC's of 2.0 μg/mL or less = A)”.

Consider `C[C@@H](N)[C@H](NC(=O)c1ccc(C#CC(O)c2ccccc2)cc1)C(=O)NO` (stereo partly drawn) [Example 137-20], for which the MIC in the assay with AECO001 (ATCC25922) (setting [6]) was in the range of 16 to 64 µg/mL (≈ 43.5 to 174 µM); in the assay with AECO001 (ATCC25922) (setting [9]), 16 to 64 µg/mL (≈ 43.5 to 174 µM); in assay [1], 16 to 64 µg/mL (≈ 43.5 to 174 µM); in assay [2], 2 to 16 µg/mL (≈ 5.44 to 43.5 µM); in assay [3] it was 16 to 64 µg/mL (≈ 43.5 to 174 µM); in assay [4] (setting [10]), 2 to 16 µg/mL (≈ 5.44 to 43.5 µM). Moreover, in the assay on APAE001 (ATCC27853) (setting [11]), the MIC lay in the range of 16 to 64 µg/mL (≈ 43.5 to 174 µM). Besides, the “MIC APAE006 + PMBN” value in assay [5] is on record as “A (MIC's of 2.0 μg/mL or less = A)”.

For `CC(C)(N)[C@H](NC(=O)c1ccc(C#CC#Cc2cncnc2)cc1)C(=O)NO` [Example 89-6], the MIC with AECO001 (ATCC25922) (setting [6]) is 2 to 16 µg/mL (≈ 5.3 to 42.4 µM); with AECO001 (ATCC25922) (setting [9]), 2 to 16 µg/mL (≈ 5.3 to 42.4 µM); in assay [1] it was less than 2 µg/mL; in assay [2] it was 2 to 16 µg/mL (≈ 5.3 to 42.4 µM); in assay [3], 16 to 64 µg/mL (≈ 42.4 to 170 µM); in assay [4] (setting [10]), less than 2 µg/mL. Also, the MIC in the assay on APAE001 (ATCC27853) (setting [11]) is less than 2 µg/mL. Further, in assay [5], the “MIC APAE006 + PMBN” value is recorded as “A (MIC's of 2.0 μg/mL or less = A)”.

Turning to `C[C@@H](O)[C@H](NC(=O)c1ccc(/C=C/C#Cc2ccccc2)cc1)C(=O)NO` [Example 114-14], the MIC in the assay on AECO001 (ATCC25922) (setting [6]) was less than 2 µg/mL; in the assay on AECO001 (ATCC25922) (setting [9]), 2 to 16 µg/mL (≈ 5.49 to 43.9 µM); in assay [1] it was less than 2 µg/mL; in assay [2] it was less than 2 µg/mL; in assay [3] it was 16 to 64 µg/mL (≈ 43.9 to 176 µM); in assay [4] (setting [10]), less than 2 µg/mL. In addition, the MIC in the assay on APAE001 (ATCC27853) (setting [11]) is 2 to 16 µg/mL (≈ 5.49 to 43.9 µM). Besides, in assay [5], the “MIC APAE006 + PMBN” value is “A (MIC's of 2.0 μg/mL or less = A)”.
